The text below walks through data of paper PMC2850882, “Two additive mechanisms impair the differentiation of 'substrate-selective' p38 inhibitors from classical p38 inhibitors in vitro” (BMC Systems Biology, 2010).

The target in one test is T1, p38 (Homo sapiens, UniProt Q16539).
T1 construct: made in house
The test can be described thus: ATP-p38 affinity (in-house measurement). It counts as binding. To be noted: kinetic model parameter. The source says:
In order to aid in the interpretation of the dual substrate assay, we developed a simple kinetic model of p38-mediated phosphorylation of two substrates: ATF2 and MK2 (diagrammed in Figure 3a). Since p38 has a single kinase domain and ATP binding site, we assumed that p38 can only act on a single substrate at a time. For each substrate, a random-order bi-substrate (substrate + ATP) reaction mechanism was assumed. Active p38 can reversibly bind ATP, with affinity KD, ATP and ATP binding is independent of further complex formation. Active p38 (ATP bound and unbound) can reversibly bind to ATF2 or MK2 to form complexes p38-ATF2 or p38-MK2, respectively. Each complex undergoes an irreversible catalysis step to form products phospho-ATF2 (and ADP) or phospho-MK2 (and ADP). The model equations are a set of ordinary differential equations written in terms of mass-action kinetics. For the case where only one substrate is present, this model reduces to the single substrate assay.

Test [1] deals with T2, p38 (phosphorylation of MK2 in presence of ATF2) (Homo sapiens, UniProt Q16539).
T2 construct: made in house
T2 sequence (Q16539 whole entry): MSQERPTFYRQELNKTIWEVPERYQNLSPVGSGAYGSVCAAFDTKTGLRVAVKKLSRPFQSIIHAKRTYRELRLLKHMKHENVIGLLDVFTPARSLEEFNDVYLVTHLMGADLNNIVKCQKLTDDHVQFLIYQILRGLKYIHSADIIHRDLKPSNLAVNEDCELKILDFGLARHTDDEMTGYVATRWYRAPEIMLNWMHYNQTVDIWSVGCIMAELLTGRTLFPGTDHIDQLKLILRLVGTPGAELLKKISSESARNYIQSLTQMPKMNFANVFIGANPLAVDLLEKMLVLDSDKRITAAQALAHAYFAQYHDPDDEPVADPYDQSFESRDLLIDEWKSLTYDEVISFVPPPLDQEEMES
The test can be described thus: ATF2/MK2 dual substrate assay, phospho-MK2 readout (MSD). It counts as biochemical. To be noted: 0.5 nM p38, 100 nM ATF2, 10 nM MK2, 50 uM ATP; measured at 30 min; ± standard error.
Protocol: (§1) To this end, we designed a dual-substrate assay in which p38 could simultaneously phosphorylate MK2 and/or ATF2. The assay conditions chosen were 0.5 nM p38, 100 nM ATF2, 10 nM MK2, 50 uM ATP. As with the single substrate assay, MK2 phosphorylation was assayed at 30 min and ATF2 phosphorylation was assayed at 120 min to ensure that each measurement was within the linear range of the assay. ATP levels were measured at the end of the assay, to confirm that it was not being depleted.
(§2) The ability of active p38 to phosphorylate ATF2, MK2 or both was tested in a biochemical assay. Reagents were added in the following order: compound, substrate(s), ATP, p38 for a final reaction volume of 40 ul in low protein binding 96-well plates (Immulon-1B). […] Reactions were performed in buffer containing 20 mM HEPES pH 7.5, 10 mM MgCl2, 0.01% BSA, 0.0005% Tween-20, 2% DMSO and 0.1 mM DTT. Reactions were quenched with 40 ul of buffer containing 50 mM HEPES pH 7.5, 30 mM EDTA following different incubation times. Phosphorylated ATF2 and phosphorylated MK2 were assayed as described below. Compounds were diluted in DMSO (Sigma).
Phospho-MK2 was measured with the MSD platform using an in-house assay. […] Plates were incubated for > 3 hr at RT, washed 4× with 150 ul MSD Tris Wash Buffer and read on the Meso-Scale Discovery Sector imager using 2× MSD Read Buffer T.

In test [2] the target is p38-alpha (ATF-2 phosphorylation). Set-up: method as in PMID 15362850. To be noted: read-out: KI, app, phosphorylation of ATF-2; cited from earlier work.
Test [3] concerns the target T3, p38 (phosphorylation of ATF2 in presence of MK2) (Homo sapiens, UniProt Q16539).
T3 construct: made in house
Kind of test: ATF2/MK2 dual substrate assay, phospho-ATF2 readout (MSD). It counts as biochemical.
Protocol: as §1, §2
Phospho-ATF2 was measured with the Meso-Scale Discovery (MSD) platform using an in-house assay. […] Plates were incubated for > 3 hr at RT, washed 4× with 150 ul MSD Tris Wash Buffer and read on the Meso-Scale Discovery Sector imager using 2× MSD Read Buffer T.

For test [4], the target named is T4, p38 (phosphorylation of ATF2) (Homo sapiens, UniProt Q16539).
T4 construct: made in house
T4 sequence (Q16539 whole entry): as above
Kind of test: Single substrate assay, phospho-ATF2 readout (MSD). The test is classed as biochemical.
Protocol: (§3) In each case, the degree of phosphorylation serves as a readout of the activity of p38 for its respective substrate.
as §2
Phospho-ATF2 was measured with the Meso-Scale Discovery (MSD) platform using an in-house assay. […] Plates were blocked with 3% MSD Blocker A in MSD Tris Wash Buffer for at least 1 hr at RT. […] Plates were incubated for > 3 hr at RT, washed 4× with 150 ul MSD Tris Wash Buffer and read on the Meso-Scale Discovery Sector imager using 2× MSD Read Buffer T.

The target in test [5] is T5, p38 (phosphorylation of MK2) (Homo sapiens, UniProt Q16539).
T5 construct: made in house
T5 sequence (Q16539 whole entry): as above
Kind of test: Single substrate assay, phospho-MK2 readout (MSD). It counts as biochemical. To be noted: MK2 only; measured at 30 min; ± standard error.
Protocol: as §3, §2
Phospho-MK2 was measured with the MSD platform using an in-house assay. […] Plates were blocked with 3% MSD Blocker A in MSD Tris Wash Buffer for at least 1 hr at RT. […] Plates were incubated for > 3 hr at RT, washed 4× with 150 ul MSD Tris Wash Buffer and read on the Meso-Scale Discovery Sector imager using 2× MSD Read Buffer T.

Test [6] addresses p38-alpha (MK2 phosphorylation). Set-up: method as in PMID 15362850. To be noted: read-out: KI, app, p38-alpha-dependent MK2 phosphorylation; cited from earlier work.
Test [7] has as its target p38-alpha (Homo sapiens) (UniProt Q16539). To be noted: cited from earlier work.
The target is the same in test [8]. To be noted: cited from earlier work. The source holds these as a separate data set.

Read-outs that look alike come from different tables or passages of the source.

p38-alpha (Homo sapiens), sequence (Q16539 2-360): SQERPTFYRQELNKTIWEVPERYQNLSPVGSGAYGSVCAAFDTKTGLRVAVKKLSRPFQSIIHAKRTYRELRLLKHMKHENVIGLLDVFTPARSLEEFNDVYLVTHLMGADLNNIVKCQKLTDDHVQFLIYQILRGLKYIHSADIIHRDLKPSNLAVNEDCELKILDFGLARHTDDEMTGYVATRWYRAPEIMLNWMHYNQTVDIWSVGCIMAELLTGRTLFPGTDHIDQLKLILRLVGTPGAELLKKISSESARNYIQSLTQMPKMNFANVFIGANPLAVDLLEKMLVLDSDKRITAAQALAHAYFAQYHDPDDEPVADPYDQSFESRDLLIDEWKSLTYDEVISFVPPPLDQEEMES
T3 sequence (Q16539 whole entry): as the sequence (Q16539 whole entry) above
ATF2, sequence (P15336 whole entry): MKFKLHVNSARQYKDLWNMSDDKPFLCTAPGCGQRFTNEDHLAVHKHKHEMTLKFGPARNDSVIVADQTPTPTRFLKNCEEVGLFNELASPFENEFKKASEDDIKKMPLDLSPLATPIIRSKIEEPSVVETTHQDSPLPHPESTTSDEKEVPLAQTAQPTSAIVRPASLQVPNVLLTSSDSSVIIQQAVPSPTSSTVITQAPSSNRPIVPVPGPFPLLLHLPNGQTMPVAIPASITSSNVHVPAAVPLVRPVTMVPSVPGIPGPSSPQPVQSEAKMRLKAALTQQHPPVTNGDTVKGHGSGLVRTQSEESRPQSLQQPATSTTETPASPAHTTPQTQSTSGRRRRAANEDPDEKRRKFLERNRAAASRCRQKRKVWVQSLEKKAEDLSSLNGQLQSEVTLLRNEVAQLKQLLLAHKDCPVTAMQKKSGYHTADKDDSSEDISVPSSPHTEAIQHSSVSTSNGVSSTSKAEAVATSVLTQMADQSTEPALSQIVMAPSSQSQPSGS
MK2, sequence (P49137 whole entry): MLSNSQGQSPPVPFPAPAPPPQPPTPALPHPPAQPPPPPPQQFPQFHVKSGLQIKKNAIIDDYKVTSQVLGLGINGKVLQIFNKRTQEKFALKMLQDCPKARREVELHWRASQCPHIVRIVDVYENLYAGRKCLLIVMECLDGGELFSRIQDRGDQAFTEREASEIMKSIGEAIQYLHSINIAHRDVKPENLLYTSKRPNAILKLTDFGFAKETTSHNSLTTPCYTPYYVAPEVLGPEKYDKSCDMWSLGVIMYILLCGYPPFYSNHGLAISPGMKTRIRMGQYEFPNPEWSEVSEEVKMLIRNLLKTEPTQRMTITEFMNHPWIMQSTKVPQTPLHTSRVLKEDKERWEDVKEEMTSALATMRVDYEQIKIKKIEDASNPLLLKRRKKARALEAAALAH
T1 sequence (Q16539 whole entry): as the sequence (Q16539 whole entry) above

Take `Nc1ncnc2c1ncn2[C@@H]1O[C@H](COP(=O)(O)OP(=O)(O)OP(=O)(O)O)[C@@H](O)[C@H]1O` [ATP]: binding on p38 was characterised by a dissociation constant (Kd) of 67 µM.

Take `O=C(CCCc1ccc(-c2ccccc2F)cc1)Nc1ccc(O)cc1` [CMPD1]: the IC50 (commonly the concentration at which inhibition is half-maximal) is 41 ± 2.2 µM in test [1]; 27 ± 16 µM in [3] (0.5 nM p38, 100 nM ATF2, 10 nM MK2, 50 uM ATP, measured at 120 min, ± standard error); above 400 µM in test [4] (ATF2 only, measured at 120 min, ± standard error); 23.4 ± 1.9 µM in test [5]. For the same compound, the Ki is above 20 µM in [2] and 0.33 µM in test [6]. Further, in test [3] (ratio of dual substrate assay IC50s), the “substrate selectivity = (ATF2 IC50)/(MK2 IC50), dual substrate assay” value was 0.66. Further, in test [4] (ratio of single substrate assay IC50s), the “substrate selectivity = (ATF2 IC50)/(MK2 IC50), single substrate assay” value is on record as above 17.

For the compound ATF2 (from UniProt P15336), in the test with p38-alpha (Homo sapiens) [7], the dissociation constant Kd (in general, the free concentration of one partner at which half of the binding sites on the other are occupied at equilibrium, for simple one-to-one binding) is 38 µM.

For MK2 (from UniProt P49137), the Kd in the test with p38-alpha (Homo sapiens) [8] was 0.02 µM.
